Structures are written as SMILES.

Test [1] has as its target T1, PaATPPRT (Psychrobacter arcticus, UniProt Q4FQF7+Q4FTX3).
T1 construct: made in house
The format is biochemical. The note with it: ADP replacing ATP as substrate, 20 °C.
Protocol: Initial rates for PaATPPRT (0.28 μM) were determined at saturating concentrations of one substrate and varying concentrations of the other, either ADP (0.4–5.6 mM) or PRPP (0.1–2.0 mM).
Kinetic and DSF data were analyzed by the nonlinear regression function of SigmaPlot 13 (SPSS Inc.). Data points and error bars in graphs are represented as means ± the standard error, and kinetic and equilibrium constants are presented as means ± the fitting error. Substrate saturation data were fitted to eq 1. […]

Test [2] has as its target T2, PaHisZ (Psychrobacter arcticus, UniProt Q4FTX3).
T2 construct: made in house
The test can be described thus: Differential scanning fluorimetry (DSF), thermal denaturation of PaHisZ. The format is binding. The protocol: DSF measurements (λex = 490 nm; λem = 610 nm) were performed in 96-well plates on a Stratagene Mx3005p instrument. Thermal denaturation of 9.4 μM PaHisZ was assayed (50 μL) in the presence of several histidine concentrations (0–8 mM) in 100 mM tricine, 100 mM KCl, 4 mM DTT, and 15 mM MgCl2 (pH 8.5). Sypro Orange (5×) (Invitrogen) was added to all wells. Thermal denaturation curves were recorded over a temperature range of 25–65 °C with 1 °C min^–1 increments. Control curves without the enzyme and were subtracted from curves with the enzyme. All measurements were carried out in quintuplicate.
Kinetic and DSF data were analyzed by the nonlinear regression function of SigmaPlot 13 (SPSS Inc.). Data points and error bars in graphs are represented as means ± the standard error, and kinetic and equilibrium constants are presented as means ± the fitting error. Substrate saturation data were fitted to eq 1. Inhibition data at fixed substrate concentrations were fitted to eq 2, and inhibition mechanism data were fitted to eq 3. […]
Background: Differential scanning fluorimetry follows unfolding on heating by fluorescence.

The target in test [3] is T1, PaATPPRT. The test can be described thus: Rapid kinetics (stopped-flow), approach to steady state in the PaATPPRT reaction. Format: biochemical. The protocol:
Rapid kinetics experiments were carried out under multiple-turnover conditions by monitoring the increase in absorbance at 290 nm upon PRATP formation at 20 °C in an Applied Photophysics SX-20 stopped-flow spectrophotometer outfitted with a 5 μL mixing cell (0.5 cm path length and 0.9 ms dead time). In all experiments, each syringe contained 100 mM tricine (pH 8.5), 100 mM KCl, 4 mM DTT, 15 mM MgCl2, and 10 μM MtPPase. For the approach to steady state in the PaATPPRT reaction, one syringe carried 38 μM PaATPPRT, 4 mM PRPP, and either 0 or 60 μM histidine, while the other carried 7 mM ATP and either 0 or 60 μM histidine. Reaction was triggered by rapidly mixing 55 μL from each syringe. The increase in absorbance was monitored in a split-time base for 1 s, with 2500 data points collected before 0.2 s and 2500 in the following 0.8 s. At least four traces were acquired for each reaction, and controls lacked PRPP. For initial rates of PaATPPRT and PaHisGS reactions, one syringe carried either 2–4 μM PaHisGS or 4 μM PaATPPRT, 4 mM PRPP, and either 0 or 1.28 mM histidine, while the other carried 11.2 mM ATP. Reaction was triggered by rapidly mixing 55 μL from each syringe. The increase in absorbance was monitored in a linear-time base for 10 s. At least four traces were acquired for each reaction, with 1000 data points collected per trace. Controls lacked PRPP.

The target of test [4] is T3, Y263F-PaATPPRT (Psychrobacter arcticus, UniProt Q4FQF7+Q4FTX3, Y263F).
T3 construct: made in house
T3 sequence (Q4FQF7 whole entry): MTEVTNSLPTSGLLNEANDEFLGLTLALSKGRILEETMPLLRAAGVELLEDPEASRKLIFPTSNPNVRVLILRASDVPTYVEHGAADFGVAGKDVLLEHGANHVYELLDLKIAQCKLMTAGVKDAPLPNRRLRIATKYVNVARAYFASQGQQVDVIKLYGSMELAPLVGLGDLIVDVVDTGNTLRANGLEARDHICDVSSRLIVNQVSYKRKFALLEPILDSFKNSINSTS
T3 sequence (Q4FTX3 whole entry Y263F): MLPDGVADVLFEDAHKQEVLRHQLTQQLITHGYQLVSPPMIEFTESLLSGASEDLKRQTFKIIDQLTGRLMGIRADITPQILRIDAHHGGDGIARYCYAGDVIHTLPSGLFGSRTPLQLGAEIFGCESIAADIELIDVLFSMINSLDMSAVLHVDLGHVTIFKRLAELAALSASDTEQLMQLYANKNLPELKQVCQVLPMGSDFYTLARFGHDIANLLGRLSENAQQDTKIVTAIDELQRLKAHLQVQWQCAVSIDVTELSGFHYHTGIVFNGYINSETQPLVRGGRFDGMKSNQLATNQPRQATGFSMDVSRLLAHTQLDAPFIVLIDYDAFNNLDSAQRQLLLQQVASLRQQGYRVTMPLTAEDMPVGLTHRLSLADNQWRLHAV
The test can be described thus: Y263F-PaHisZ-based PaATPPRT activity assay, initial rates with and without histidine. Format: biochemical. The source says:
Replacement of tyrosine for phenylalanine at position 263 of PaHisZ was accomplished by the method of Liu and Naismith,[29] with primers 5′-[…]-3′ and 5′-[…]-3′. Successful mutation was confirmed by DNA sequencing (Eurofins Genomics). Y263F-PaHisZ was expressed and purified by the same protocol reported for wild-type (WT) PaHisZ.[20] ESI/MS analysis of the protein yielded a mass of 43068.9, exactly what would be expected by the loss of a hydroxyl group when compared with the mass of WT-PaHisZ.[20] Y263F-PaHisZ-based PaATPPRT was assayed for catalytic activity under initial rate conditions at 20 °C in the presence of 5.6 mM ATP and 2 mM PRPP and in the presence or absence of 320 μM histidine, along with other reaction components exactly as described for WT-PaATPPRT. Measurements were carried out in duplicate.

Test [5] concerns PaHisGS. More on the design: method as in PMID 28092443. The note with it: PaHisGS in the absence of PaHisZ; cited from earlier work.
For test [6], the target named is T1, PaATPPRT. The test can be described thus: PaATPPRT activity assay, initial rates (absorbance at 290 nm, PRATP formation), inhibition by histidine. Particulars: for Kii: linear regression of intercept replot of individually fitted double-reciprocal curves. The format is biochemical. The protocol: All assays were performed under initial rate conditions in the forward direction at 20 °C, in the presence or absence of histidine, as previously described[20] by monitoring the increase in absorbance at 290 nm due to the formation of PRATP (ε290 = 3600 M^–1 cm^–1)[23] in 1 cm path length quartz cuvettes (Hellma) in a Shimadzu UV-2600 spectrophotometer. Unless stated otherwise, for PaHisGS activity, the PaHisGS concentration was typically 2 μM, and for PaATPPRT activity, PaHisGS and PaHisZ concentrations were 0.28 and 15 μM, respectively. Reactions were started by addition of PRPP. Control reaction mixtures lacked either ATP, PRPP, PaHisGS, or PaHisZ. […] Initial rates were also measured with saturating concentrations of both substrates in the presence or absence of 4 mM TIH. All kinetic measurements were performed at least in duplicate unless stated otherwise.
The half-maximal inhibitory concentration of histidine was determined by measuring the initial rates for PaATPPRT (0.24 μM) in the presence of 5.6 mM ATP (or 5.6 mM ADP), 2 mM PRPP, and varying concentrations of histidine (0–320 μM). The inhibition mechanism was investigated by measuring the initial rates for PaATPPRT (0.28 μM) at saturating concentrations of one substrate and varying concentrations of the other, either ATP (0.2–2.8 mM) or PRPP (0.1–2.0 mM), with different concentrations of histidine (0–10 μM). In some instances, the lowest-concentration data point was an outlier in the double-reciprocal plot and was excluded from the fit.
Kinetic and DSF data were analyzed by the nonlinear regression function of SigmaPlot 13 (SPSS Inc.). Data points and error bars in graphs are represented as means ± the standard error, and kinetic and equilibrium constants are presented as means ± the fitting error. Substrate saturation data were fitted to eq 1. Inhibition data at fixed substrate concentrations were fitted to eq 2, and inhibition mechanism data were fitted to eq 3. In eqs 1–3, v is the initial rate, S is the concentration of the varying substrate, kcat is the steady-state turnover number, KM is the apparent Michaelis constant, ET is total enzyme concentration, vi is the initial rate in the presence of an inhibitor, IC50 is the half-maximal inhibitory concentration, h is the Hill slope, Kis is the slope inhibition constant, and Kii is the intercept inhibition constant. DSF thermal denaturation data were fitted to eq 4,[30] and PaHisZ–histidine complex equilibrium dissociation data were fitted to eq 5. In eqs 4 and 5, FU is the fraction unfolded, T is the temperature in degrees Celsius, Tm is the melting temperature, c is the slope of the transition region, LL and UL are folded and unfolded baselines, respectively, Tm0 is the Tm in the absence of histidine, Tm∞ is the Tm at an infinite histidine concentration, H is the histidine concentration, and KD is the apparent equilibrium dissociation constant for the PaHisZ–histidine complex.

Where [7] appears, read: ATP and histidine (60 μM in syringe) rapidly mixed with PaATPPRT preincubated with PRPP.
Setting [8] is: ATP rapidly mixed with PaATPPRT preincubated with PRPP and histidine (60 μM in syringe).

T1 sequence (Q4FTX3 whole entry): as the sequence (Q4FTX3 whole entry Y263F) above, with F263Y counted along it
T1 sequence (Q4FQF7 whole entry): as the sequence (Q4FQF7 whole entry) above
T2 sequence (Q4FTX3 whole entry): as the sequence (Q4FTX3 whole entry Y263F) above, with F263Y counted along it

As to `Nc1ncnc2c1ncn2[C@@H]1O[C@H](COP(=O)(O)OP(=O)(O)O)[C@@H](O)[C@H]1O` [ADP, adenosine 5′-diphosphate], the kcat in test [1] was 2.6 ± 0.4 s^–1.
Turning to `N[C@@H](Cc1c[nH]cn1)C(=O)O` [Histidine, L-histidine], the Kd in test [2] (free PaHisZ 9.4 μM, Tm dependence on histidine 0–8 mM, fit to eq 5, read-out: KD (apparent equilibrium dissociation constant, PaHisZ–histidine complex)) is 2800 ± 800 µM. Further, in test [2] (free PaHisZ, histidine 0–8 mM), the “effect on Tm of PaHisZ” value is “increases”. In test [3] (setting [7]), the “amplitude of the burst phase” value was 3.49 ± 0.01 µM. Moreover, the steady-state rate was 7.56 ± 0.01 μM s^–1 in test [3] (setting [7]) and 7.83 ± 0.01 μM s^–1 in test [3] (setting [8]). In test [3] (setting [8]), this compound returned a burst amplitude of 0.53 ± 0.01 µM. The “vi/v0 (ratio of initial rates in presence and absence of inhibitor)” value is on record as 0.250 ± 0.001 in test [4] (320 μM histidine, 5.6 mM ATP, 2 mM PRPP, 20 °C) and 0.070 ± 0.004 in test [6] (WT-PaATPPRT, 320 μM histidine, 5.6 mM ATP, 2 mM PRPP, 20 °C). Besides, the “susceptibility to inhibition, Y263F-PaATPPRT less susceptible than WT-PaATPPRT” value in test [4] (320 μM histidine, from vi/v0 of mutant and WT) was more than 3 fold. Moreover, in test [4] (read-out: enzyme activity lost due to histidine inhibition), the inhibition at 320 µM turned out to be 75%. In test [5], the “sensitivity of PaHisGS to histidine” value is “insensitive”. Besides, the “h (Hill slope)” value in test [6] (5.6 mM ATP, 2 mM PRPP, 20 °C, fit to eq 2) came to 1.30 ± 0.04; in test [6] (ADP (5.6 mM) as the substrate, 2 mM PRPP) it was 1.32 ± 0.09. In addition, the half-inhibitory concentration (IC50) in test [6] (IC50, 5.6 mM ATP, 2 mM PRPP, 20 °C, fit to eq 2) came to 35.5 ± 0.8 µM; in test [6] (IC50, ADP (5.6 mM) as the substrate, 2 mM PRPP), 31 ± 1 µM. Besides, the Ki in test [6] (Kis (slope inhibition constant), against ATP, global fit to eq 3) is 56 ± 25 µM; in test [6] (Kis (slope inhibition constant), against PRPP, global fit to eq 3) it was 22 ± 6 µM; in test [6] (Kis, against ATP, linear regression of slope replot of individually fitted double-reciprocal curves), 60 µM; in test [6] (Kis, against PRPP, linear regression of slope replot of individually fitted double-reciprocal curves), 30 µM. The “Kii (intercept inhibition constant)” value was 36 ± 5 µM in test [6] (against ATP, global fit to eq 3) and 38 ± 7 µM in test [6] (against PRPP, global fit to eq 3). For the same compound, the Kii in test [6] (against ATP) was 40 µM; in test [6] (against PRPP) it was 26 µM. Besides, the inhibition mechanism entry in test [6] (against both substrates (PRPP and ATP)) was “noncompetitive”.
On to `N[C@@H](Cc1cccs1)C(=O)O` [TIH, 3-(2-thienyl)-L-alanine], for which, in test [6] (4 mM TIH, saturating concentrations of both substrates), the “effect on PaATPPRT catalysis” value was “no effect”.

For orientation: inhibition means the relative decrease from the control value, in per cent. Usually IC50 stands for the midpoint of a concentration-inhibition curve. Higher therefore signals weaker potency in that assay. By Ki is commonly meant a measure of affinity in units of concentration, obtained from inhibition or displacement.

Values taken from paper PMC6685669, “Mapping the Structural Path for Allosteric Inhibition of a Short-Form ATP Phosphoribosyltransferase by Histidine” (Biochemistry, 2019).
